Results published in ChEMBL document CHEMBL1149525, “Synthesis and evaluation of anilinohexafluoroisopropanols as activators/modulators of LXRalpha and beta” (Bioorg Med Chem Lett, 2006).

Assays:
[1] = biological target: T1, Oxysterols receptor LXR-alpha (Homo sapiens, UniProt Q13133)
T1 sequence (Q13133 whole entry): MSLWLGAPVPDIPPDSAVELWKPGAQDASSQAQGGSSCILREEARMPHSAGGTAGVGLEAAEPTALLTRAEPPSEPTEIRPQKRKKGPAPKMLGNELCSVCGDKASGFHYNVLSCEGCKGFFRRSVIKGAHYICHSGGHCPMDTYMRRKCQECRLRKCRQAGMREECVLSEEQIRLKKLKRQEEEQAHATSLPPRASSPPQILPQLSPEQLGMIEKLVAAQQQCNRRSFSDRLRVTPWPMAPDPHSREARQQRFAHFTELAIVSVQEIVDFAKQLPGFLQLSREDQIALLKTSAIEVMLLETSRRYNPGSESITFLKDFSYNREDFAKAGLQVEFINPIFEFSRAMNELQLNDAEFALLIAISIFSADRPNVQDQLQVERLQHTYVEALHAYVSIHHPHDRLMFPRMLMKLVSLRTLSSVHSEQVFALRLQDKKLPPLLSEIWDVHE

[2] = biological target: T1, Oxysterols receptor LXR-alpha; remark: listed apart in the source
[3] = biological target: T2, Oxysterols receptor LXR-beta (Homo sapiens, UniProt P55055)
Mus musculus [4] = test: Increase in liver triglyceride level in C57BL/6J mouse after 5 days at 10 mg/kg/day relative to control; assay type: functional
Mus musculus [5] = test: Increase in plasma HDL-C level in C57BL/6J mouse after 5 days at 10 mg/kg/day relative to control; assay type: functional
[6] = Liver concentration in C57BL/6J mouse after 5 days at 10 mg/kg/day; assay type: ADME, organism-based; conditions: read-out: Drug uptake
[7] = biological target: T2, Oxysterols receptor LXR-beta; remark: listed apart in the source
Mus musculus [8] = test: Decrease in plasma triglyceride level in C57BL/6J mouse after 5 days at 10 mg/kg/day relative to control; assay type: functional; set-up: scale not given: the % may be the effect or the level left
[9] = Plasma concentration in C57BL/6J mouse after 5 days at 10 mg/kg/day; assay type: ADME, organism-based
[10] = Plasma concentration in C57BL/6J mouse after 5 days at 100 mg/kg/day; assay type: ADME, organism-based
Mus musculus [11] = test: Increase in plasma HDL-C level in C57BL/6J mouse after 5 days at 100 mg/kg/day relative to control; assay type: functional
Mus musculus [12] = test: Increase in plasma triglyceride level in C57BL/6J mouse after 5 days at 100 mg/kg/day relative to control; assay type: functional
[13] = Liver concentration in C57BL/6J mouse after 5 days at 100 mg/kg/day; assay type: ADME, organism-based; conditions: read-out: Drug uptake
Mus musculus [14] = test: Increase in liver triglyceride level in C57BL/6J mouse after 5 days at 100 mg/kg/day relative to control; assay type: functional
Mus musculus [15] = test: Decrease in plasma triglyceride level in C57BL/6J mouse after 5 days at 100 mg/kg/day relative to control; assay type: functional; set-up: scale not given: the % may be the effect or the level left

T2 sequence (P55055 whole entry): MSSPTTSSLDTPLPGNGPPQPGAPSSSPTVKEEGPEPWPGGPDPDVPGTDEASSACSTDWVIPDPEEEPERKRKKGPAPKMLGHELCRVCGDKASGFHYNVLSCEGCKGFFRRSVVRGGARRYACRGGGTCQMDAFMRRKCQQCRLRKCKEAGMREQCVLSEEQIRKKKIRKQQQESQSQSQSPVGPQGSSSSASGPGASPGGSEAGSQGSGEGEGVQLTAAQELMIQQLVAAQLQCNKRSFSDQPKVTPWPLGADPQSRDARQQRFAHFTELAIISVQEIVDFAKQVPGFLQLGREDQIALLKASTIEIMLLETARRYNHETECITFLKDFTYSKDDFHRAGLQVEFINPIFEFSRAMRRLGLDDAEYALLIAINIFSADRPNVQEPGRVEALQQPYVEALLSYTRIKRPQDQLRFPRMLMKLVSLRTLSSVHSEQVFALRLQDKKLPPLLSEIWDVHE

SMILES | IC50 [1] [nM] | EC50 [2] [nM] | also measured
CCN(Cc1ccncc1)c1ccc(C(O)(C(F)(F)F)C(F)(F)F)cc1 | 1700 | 2100 | 
CCN(Cc1ccccn1)c1ccc(C(O)(C(F)(F)F)C(F)(F)F)cc1 | 1500 | 700 | 
OC(c1ccc(N(Cc2ccccc2)CC(F)(F)F)cc1)(C(F)(F)F)C(F)(F)F | 70 | 900 | 
CCN(Cc1nc(-c2cccc(C(F)(F)F)c2)oc1C)c1ccc(C(O)(C(F)(F)F)C(F)(F)F)cc1 | 6 | 200 | IC50 [3]: 3 nM; Activity (Mus musculus [4]): 70%; Activity (Mus musculus [5]): 35%; concentration at 120 h [6]: 8200 ng/g; EC50 [7]: 60 nM; Activity (Mus musculus [8]): 12%; concentration at 120 h [9]: 700 ng/mL
CCN(Cc1cscn1)c1ccc(C(O)(C(F)(F)F)C(F)(F)F)cc1Cl | 20 | 500 | 
Cc1oc(-c2cccc(C(F)(F)F)c2)nc1CN(CC(F)(F)F)c1ccc(C(O)(C(F)(F)F)C(F)(F)F)cc1 | 13 | 700 | 
CCN(Cc1nc(-c2cccc(Cl)c2)oc1C)c1ccc(C(O)(C(F)(F)F)C(F)(F)F)cc1Cl | 2 | 300 | 
CCN(CCc1ccccc1)c1ccc(C(O)(C(F)(F)F)C(F)(F)F)cc1 | 120 | 1000 | 
CCN(Cc1ccccc1)c1ccc(C(O)(C(F)(F)F)C(F)(F)F)cc1Cl | 3 | 200 | concentration at 120 h [10]: 3400 ng/mL; Activity (Mus musculus [11]): 23%; IC50 [3]: 3 nM; EC50 [7]: 80 nM; Activity (Mus musculus [12]): 7%; concentration at 120 h [13]: 13000 ng/g; Activity (Mus musculus [14]): 28%
CCN(Cc1cccnc1)c1ccc(C(O)(C(F)(F)F)C(F)(F)F)cc1 | 2700 | 4300 | 
CCN(Cc1nc(-c2cccc(C(F)(F)F)c2)oc1C)c1ccc(C(O)(C(F)(F)F)C(F)(F)F)cc1Cl | 6 | 100 | 
CCN(Cc1ccccc1)c1ccc(C(O)(C(F)(F)F)C(F)(F)F)cc1 | 50 | 1100 | 
OC(c1ccc(N(Cc2ccccc2)CC(F)(F)F)c(Cl)c1)(C(F)(F)F)C(F)(F)F | 1 | 100 | 
CCN(Cc1cscn1)c1ccc(C(O)(C(F)(F)F)C(F)(F)F)cc1 | 600 | 3300 | 
CCN(CCc1ccccc1)c1ccc(C(O)(C(F)(F)F)C(F)(F)F)cc1Cl | 6 | 800 | 
Cc1oc(-c2cccc(Cl)c2)nc1CN(CC(F)(F)F)c1ccc(C(O)(C(F)(F)F)C(F)(F)F)cc1 | 30 | 1000 | 
CCN(c1ccc(C(O)(C(F)(F)F)C(F)(F)F)cc1Cl)C(COc1ccc(CC(=O)O)cc1)c1ccccc1 (racemic) | 100 | 5500 | 
CCN(c1ccc(C(O)(C(F)(F)F)C(F)(F)F)cc1Cl)C(COc1ccc(CCC(=O)OC)cc1)c1ccccc1 (racemic) | 100 | 1400 | 
CCN(c1ccc(C(O)(C(F)(F)F)C(F)(F)F)cc1)C(COCCO)c1ccccc1 (racemic) | 12000 | > 40000 | 
CCN(c1ccc(C(O)(C(F)(F)F)C(F)(F)F)cc1)C(C(=O)OC)c1ccccc1 (racemic) | 700 | 2300 | 

SMILES | IC50 [1] [nM] | EC50 [2] [nM] | also measured
CCN(c1ccc(C(O)(C(F)(F)F)C(F)(F)F)cc1)C(C)(C(=O)N(C)C)c1ccccc1 (racemic) | 200 | 400 | 
CCN(c1ccc(C(O)(C(F)(F)F)C(F)(F)F)cc1)C(COCC(=O)N(C)C)c1ccccc1 (racemic) | 900 | 800 | 
CCN(c1ccc(C(O)(C(F)(F)F)C(F)(F)F)cc1Cl)C(COc1ccc(C(=O)OC)cc1)c1ccccc1 (racemic) | 60 | 700 | 
CCN(c1ccc(C(O)(C(F)(F)F)C(F)(F)F)cc1)C(C(=O)NC)c1ccccc1 (racemic) | 11200 | 10900 | 
CCN(c1ccc(C(O)(C(F)(F)F)C(F)(F)F)cc1Cl)C(CC)(C(=O)OC)c1ccccc1 (racemic) | 60 | 500 | 
CCN(c1ccc(C(O)(C(F)(F)F)C(F)(F)F)cc1)C(C(=O)O)c1ccccc1 (racemic) | 5200 | 9400 | 
CCN(c1ccc(C(O)(C(F)(F)F)C(F)(F)F)cc1)C(COCC(=O)O)c1ccccc1 (racemic) | 61000 | 10000 | 
CCN(c1ccc(C(O)(C(F)(F)F)C(F)(F)F)cc1)C(COC)c1ccccc1 (racemic) | 400 | 900 | 
CCN(c1ccc(C(O)(C(F)(F)F)C(F)(F)F)cc1)C(COCc1ccccc1)c1ccccc1 (racemic) | 200 | 1900 | 
CCN(c1ccc(C(O)(C(F)(F)F)C(F)(F)F)cc1)C(C(=O)N(C)C)c1ccccc1 (racemic) | 13800 | 9300 | 
CCN(c1ccc(C(O)(C(F)(F)F)C(F)(F)F)cc1)C(C)(C(=O)OC)c1ccccc1 (racemic) | 50 | 100 | concentration at 120 h [10]: 2300 ng/mL; Activity (Mus musculus [11]): 12%; IC50 [3]: 8 nM; Activity (Mus musculus [15]): 11%; EC50 [7]: 30 nM; concentration at 120 h [13]: 6300 ng/g; Activity (Mus musculus [14]): 520%
CCN(c1ccc(C(O)(C(F)(F)F)C(F)(F)F)cc1Cl)C(COc1ccc(CC(=O)OC)cc1)c1ccccc1 (racemic) | 200 | 1100 | 
CCN(c1ccc(C(O)(C(F)(F)F)C(F)(F)F)cc1)C(CC)(C(=O)OC)c1ccccc1 (racemic) | 50 | 300 | 
CCN(c1ccc(C(O)(C(F)(F)F)C(F)(F)F)cc1Cl)C(COc1ccc(CCC(=O)O)cc1)c1ccccc1 (racemic) | 60 | 4500 | 
COC(=O)C1(c2ccccc2)CCCCN1c1ccc(C(O)(C(F)(F)F)C(F)(F)F)cc1 (racemic) | 60 | 90 | 
COC(=O)C1(c2ccccc2)CCCN1c1ccc(C(O)(C(F)(F)F)C(F)(F)F)cc1 (racemic) | 50 | 200 | 
CCN(c1ccc(C(O)(C(F)(F)F)C(F)(F)F)cc1)C(COCC(=O)OC)c1ccccc1 (racemic) | 600 | 2200 | 
CCN(c1ccc(C(O)(C(F)(F)F)C(F)(F)F)cc1)C(C(=O)N1CCOCC1)c1ccccc1 (racemic) | 5400 | 8500 | 
CCN(c1ccc(C(O)(C(F)(F)F)C(F)(F)F)cc1)C(COCC(=O)NC)c1ccccc1 (racemic) | 18000 | > 40000 | 
CCN(c1ccc(C(O)(C(F)(F)F)C(F)(F)F)cc1Cl)C(COc1ccc(C(=O)O)cc1)c1ccccc1 (racemic) | 100 | 3700 | 
